# Laboratory results as given in patent US11141419B1, “Use of iminosugars as prophylactic and therapy against COVID-19 / SARS-CoV-2” (priority 2020, dated 2021).
# Like-named read-outs stand apart in the source and are kept apart here.
# How the values were obtained:
# [1] = test system: SARS-CoV-2/WA/1 virus; assay: Plaque reduction assay in Vero E6 cells; format: cell-based; details: Vero E6 cells pre-treated and overlaid with iminosugar, 40 PFU, 48 hrs, duplicate wells, read-out: IC50 against SARS-CoV-2 (plaque formation)
# [2] = test system: SARS-CoV-2 virus; format: cell-based; details: Vero E6, MOI 0.01, 100 μM iminosugar, 24 hrs, supernatant
# [3] = test system: Lentiviruses expressing SARS-CoV-2 spike glycoprotein (Wuhan isolate, P.1, B.1.1.7, B.1.351); format: cell-based; details: 100 μM iminosugar, 24 hrs pre-treatment, luciferase after 48 hrs
# [4] = test system: SARS-CoV-2; format: cell-based; details: Huh7.0, lower MOI (0.1), 250 μM, three days
# [5] = test system: Huh7.0 human cells; assay: Cell viability (MTS assay) of uninfected Huh7.0 cells; details: various concentrations, three days
# [6] = test system: COVID-19; details: repurposed drug regimens; cited from earlier work
# [7] = Severe acute respiratory syndrome coronavirus 2, Vero C1008
SMILES,"IC50 [1, 7] [µM]",SARS-CoV-2 viral RNA production / viral genome copy number (N1 gene PCR) [2],pseudotyped SARS-CoV-2 viral entry into human 293t-hACE2 cells [3],effect on hospitalized COVID-19 patients [6],further results
"C[C@H]1O[C@H](O[C@H]2[C@H](O)[C@@H](O)[C@@H](O[C@H]3[C@H](O)[C@@H](O)C(O)O[C@@H]3CO)O[C@@H]2CO)[C@H](O)[C@@H](O)[C@@H]1N[C@H]1C=C(CO)[C@@H](O)[C@H](O)[C@H]1O (some centres unmarked) [Acarbose, acarbose]",105,–,–,–,–
"O[C@H]1[C@H](O)[C@@H](O)CN2CC[C@H](O)[C@H]12 [Castanospermine, castanospermine]",–,significantly reduced,significant decrease,–,IC50 [1]: 91 µM
"OCCN1C[C@H](O)[C@@H](O)[C@H](O)[C@H]1CO [Miglitol, miglitol]",135,significantly reduced,significant decrease,–,cell survival [4]: completely restored; toxicity to human cells [5]: without toxicity
CCN(CCO)CCCC(C)Nc1ccnc2cc(Cl)ccc12 (centres unmarked) [hydroxychloroquine],–,–,–,little or no effect,–
Cc1cccc(C)c1OCC(=O)N[C@@H](Cc1ccccc1)[C@@H](O)C[C@H](Cc1ccccc1)NC(=O)[C@H](C(C)C)N1CCCNC1=O [lopinavir],–,–,–,little or no effect,–
